Patent US9730894B2, “Stabilized HME composition with small drug particles” (BOARD OF REGENTS, THE UNIVERSITY OF TEXAS SYSTEM, priority 2004, dated 2017)

Columns and labels:
[1] = Dissolution test, USP 27 Type II paddle apparatus; format: physicochemical; settings: 900 ml 0.1 N HCl, 37° C., 50 rpm, equivalent to 10 mg active
Description: The dissolution media was 900 ml of 0.1 N HCl, and was de-aerated with helium for approximately 15 minutes before each dissolution test. In all cases where not otherwise specified, the equivalent to 10 mg of the active ingredient was added to each dissolution vessel.

[2] = Solubilization of ITZ by the carrier during hot-melt extrusion at 100° C. (DSC, SEM); settings: extruded at 100° C., confirmed by SEM and DSC
Description: A Randcastle Microtruder RCP-0750 hot-melt extruder equipped with a 6 mm round die was operated at 15 RPM, 0.2-0.3 Drive Amps with an Extrusion Temperature of 100° C. to prepare the composition. All powders were blended in a v-shell blender prior to extrusion. Temperature zones were set as follows: zone 1: 90° C., zone 2: 95° C., zone 3: 100° C., die temperature 100° C. The powder blend was placed in a hopper that is located at the head of a vertical screw such that the material is flood fed by gravity. The residence time of the material in the extruder was approximately three minutes. The extrudate was sheared into approximately one foot sections after exiting the die and placed on an aluminum sheets and allowed to cool at ambient conditions.
The fine drug-containing particles and compositions containing them were analyzed by scanning electron microscopy using a Hitachi S-4500 scanning electron microscope. Samples were coated with Au/Pd and an accelerating voltage of 5 kV was used.
Changes in the degree of crystallization of the fine drug-containing particles, either neat or dispersed within a hot-melt extruded composition, were determined and quantified by differential scanning calorimetry. A TA Instruments Model 2920 calorimeter was used to conduct the analyses.

CCC(C)n1ncn(-c2ccc(N3CCN(c4ccc(OCC5COC(Cn6cncn6)(c6ccc(Cl)cc6Cl)O5)cc4)CC3)cc2)c1=O (centres unmarked) [bulk ITZ, itraconazole]
ITZ drug release (dissolved) in 10 minutes (FIG. 12) [1]: less than 1%
Solubility of itraconazole in PEO when extruded [2]: substantially insoluble
